The record followed here is patent publication US20130058903A1, “Stem-Cell Material and Method of Use” (priority 2009, published 2013).

The test system of one test is JAK/STAT3 signaling. Kind of test: Extracardiac MSC therapy with WP1066 (echocardiography, ELISA). It is filed as in vivo, hamster. As for the experimental part:
FIG. 14: WP1066 inhibits JAK/STAT3 signaling and abrogates MSC-mediated cardiac repair. […] Cells were pretreated with WP1066 at the indicated dosages for 2 hours, following which cells were stimulated with MSC-CM for 30 min. Western blot assays were performed to determine STAT3 activation. B: The extracardiac MSC therapy was carried out as described previously (54). The four treatment groups (n=5 per group) were: WP1066, drug vehicle (PEG), MSC plus WP1066, and MSC plus drug vehicle (MSC+PEG). qRT-PCR assays of myocardial ANP and BNP expression (n=4 per group) after one month were presented. ANOVA was performed to assess statistical significance. *P<0.05 vs. PEG.
FIG. 15: WP1066 blocks MSC-mediated improvement in cardiac function. Cardiac function was determined by blind-folded echocardiography after MSC administration. A: Representative M-mode recording for the four animal groups at 4 weeks. B: LVEF at 2 and 4 weeks after MSCs. ANOVA was performed to assess statistical significance. *P<0.05 vs. PEG; †P<0.05 vs. WP1066; #P<0.05 vs. pre-injection.
FIG. 16: Inhibition of JAK/STAT3 signaling abolishes MSC-induced tissue growth factor levels. Soluble fractions of total hamstring extracts (panel A) and plasma samples (panel B) were assayed using rodent-specific HGF and VEGF ELISA kits (n=4 per group). Tissue growth factor concentrations were expressed as ng per mg soluble proteins. ANOVA was performed to assess statistical significance. *P<0.05 vs. PEG; †P<0.05 vs. WP1066; #P<0.05 vs. MSC+WP1066.
A general note: An ELISA detects its analyte on a solid surface through an enzyme-linked reagent.

The next test relates to STAT3. Briefly: Western blot of STAT3 phosphorylation in C2C12 myocytes. Particulars: C2C12 pretreated 2 hours, then MSC-CM for 30 min. The class given is cell-based. As for the experimental part: FIG. 8: Trophic actions of MSCs stimulate JAK/STAT3 signaling in cultured skeletal myocytes. C2C12 myocytes were plated in 6-well plates (10^5 cells per well). After overnight plating, cells were exposed to the indicated conditioned medium. A: Western blot assays of C2C12 cells exposed to MSC-CM for 5 min, 30 min, 6 hr, and 24 hr. B: In situ immunostaining of control medium- and MSC-CM-treated C2C12 cells (30 min incubation) using a p-STAT3 antibody (red) and β-actin antibody (green). Alexa647- and FITC-conjugated secondary antibodies were used. Nuclei were stained with DAPI. C: Western blot assays comparing the effects of porcine MSC-CM, a human embryonic kidney cell line (HEK293) CM, IL-6, IL-11, and LIF on STAT3 phosphorylation in C2C12 myocytes 30 min after treatment. Fifty ng/ml recombinant proteins were used. D: CT for human MSC IL-6-type cytokines. The CT for the house-keeping gene β2-microglobulin and GAPDH are ˜17 and ˜15, respectively.
FIG. 9: gp130/STAT3 signaling stimulates growth factor expression in cultured skeletal myocytes. C2C12 myocytes were treated with […] of a gp130 antibody (R&D Systems; #AF468) or control IgG for one hour at 37° C. The IgG isotype antibody was used as a negative control. Cells were then briefly rinsed and treated with MSC-CM for 30 min to assess STAT3 activation or 3 days for growth factor production. […]
(In general: Immunoblotting shows a protein as a band on a membrane.)

`C[C@H](NC(=O)/C(C#N)=C/c1cccc(Br)n1)c1ccccc1` [WP1066]: in the test with JAK/STAT3 signaling (2 and 4 weeks after MSCs), the “MSC-mediated improvement in cardiac function (LVEF)” value is listed as “blocks”. Also, in the test on JAK/STAT3 signaling (hamstring extracts and plasma), the “MSC-induced tissue growth factor levels (HGF, VEGF)” value was “abolishes”. Also, in the test with JAK/STAT3 signaling (myocardial ANP and BNP expression after one month), the MSC-mediated cardiac repair result is “abrogates”. The STAT3 phosphorylation result in the test with STAT3 is given as “Inhibitory effect”.
